BindingDB's records for doi:10.1021/jm0502182 (Institute of Cancer Research, 2005)

Assay: Inhibitory activity against carboxypeptidase G2 from pseudomonas RS16

Compound	Ki [µM]
O=C(O)CC[C@H](NC(=O)c1c(F)c(F)c(N(CCI)CCI)c(F)c1F)C(=O)O [(S)-2-{4-[Bis-(2-iodo-ethyl)-amino]-2,3,5,6-tetrafluoro-benzoylamino}-pentanedioic acid]	276
O=C(O)CC[C@H](NC(=O)c1c(F)c(F)c(N(CCCl)CCCl)c(F)c1F)C(=O)O [(S)-2-{4-[Bis-(2-chloro-ethyl)-amino]-2,3,5,6-tetrafluoro-benzoylamino}-pentanedioic acid]	127
